6 compounds from ChEMBL document CHEMBL3608258, “Anti-influenza activities of polyphenols from the medicinal mushroom Phellinus baumii” (Bioorg Med Chem Lett, 2015) can be followed below.

In data set [1] the test system is Influenza A virus. The data set is described as follows: Antiviral activity against Influenza A virus H1N1 infected in MDCK cells assessed as inhibition of virus-induced change in cell morphology at 10 ug/ml after 2 days by microscopic analysis. Format: functional, organism-based.
Data set [2] addresses T1, Neuraminidase (Influenza A virus, UniProt B4URF0). In words: (§1) Inhibition of recombinant Influenza A virus H5N1 neuraminidase.
In data set [3] the target is Neuraminidase (Influenza A virus) (UniProt B4URF0). Described as §1.
The target is the same in data set [4]. In words: Noncompetitive inhibition of recombinant Influenza A virus H1N1 neuraminidase using MU-NANA as substrate.
In data set [5] the target is T1, Neuraminidase. The data set is described as follows: Inhibition of recombinant Influenza A virus H3N2 neuraminidase.
Data set [6] can be described thus: Retention time of the compound. Format: physicochemical.
Data set [7] can be described thus: Cytotoxicity against MDCK cells by SRB assay. Format: cell-based, Canis lupus familiaris. The following applies: dog. On the technique in general: In SRB staining, fixed cells bind dye roughly in proportion to their protein.
Data set [8] is described as follows: Therapeutic index, ratio of CC50 for MDCK cells to IC50 for Influenza A virus H1N1. In kind it is cell-based. The conditions noted are these: dog, read-out: Ratio CC50/IC50.
Data set [9] has as its target Neuraminidase (Influenza A virus) (UniProt B4URF0). In words: Ratio of hispidin IC50 to compound IC50 for recombinant Influenza A virus H1N1 neuraminidase.
Data set [10] concerns the target T1, Neuraminidase. In words: (§2) Inhibition of recombinant Influenza A virus H1N1 neuraminidase.
The target in data set [11] is Neuraminidase (Influenza A virus) (UniProt B4URF0). Described as §2.
Data set [12] deals with Influenza A virus. The data set is described as follows: Antiviral activity against Influenza A virus H1N1 infected in MDCK cells assessed as inhibition of virus-induced cytopathic effect by SRB assay. In kind it is functional, organism-based. (In general: Protection from cytopathic effect is a common read-out in antiviral testing.)
Data set [13] concerns Influenza A virus. The data set is described as follows: Ratio of zanamivir IC50 to compound IC50 for Influenza A virus H1N1 infected in MDCK cells assessed as inhibition of virus-induced cytopathic effect by SRB assay. Format: functional.

The source made the active and inactive calls. The calls are words filed in the database; no cut-off is given here.

As to `CC1=CC(=O)[C@H](c2c(O)cc(/C=C/c3ccc(O)c(O)c3)oc2=O)[C@@H](c2ccc(O)c(O)c2)O1` [DAVALLIALACTONE], in the data set on Influenza A virus [1], the inhibition result is “Active”. Moreover, the IC50 at Neuraminidase [2] came to 21.8 µM; on Neuraminidase [5], 21.1 µM; on Neuraminidase [10], 14.2 µM; in the data set with Influenza A virus [12] it was 42.8 µM. Also, the inhibition result in data set [3] and in [11] was “Dose-dependent effect” in each case. Also, the Kiuc in data set [4] is 27.6 µM. The same compound registered a Retention_time in [6] of 9 min. This compound also showed a half-maximal cytotoxic concentration (CC50) in [7] of 680 µM. Also, the selectivity ratio in [8] was found to be 2.3. Moreover, the Ratio IC50 in data set [9] is 3.6.
On to `O=c1cc(O)cc(/C=C/c2ccc(O)c(O)c2)o1` [HISPIDIN], for which the inhibition result in the data set on Influenza A virus [1] is “Active”. Also, the IC50 at Neuraminidase [2] was 16.9 µM; at Neuraminidase [5], 45.2 µM; on Neuraminidase [10] it was 50.9 µM; in the data set with Influenza A virus [12], 57.9 µM. Besides, the inhibition result in data set [3] and in [11] was “Dose-dependent effect” each time. The Kiuc in data set [4] worked out at 43 µM. The Retention_time in data set [6] is reported as 11.6 min. In data set [7], this compound returned a CC50 greater than 100 µM. The selectivity ratio in [8] was greater than 1.7.
Turning to `O=c1cc(O)cc([C@H]2c3c(cc(/C=C/c4ccc(O)c(O)c4)oc3=O)O[C@@H]2c2ccc(O)c(O)c2)o1` [HYPHOLOMINE B], the inhibition entry in the data set on Influenza A virus [1] was “Active”. Moreover, the IC50 was 12.3 µM on Neuraminidase [2], 14.6 µM at Neuraminidase [5], 22.9 µM at Neuraminidase [10] and 72.8 µM in the data set with Influenza A virus [12]. Further, the inhibition result in [3] and in [11] was “Dose-dependent effect” throughout. In addition, the Kiuc in data set [4] came out at 20.9 µM. Besides, the Retention_time in data set [6] worked out at 14.5 min. Moreover, the CC50 in [7] was greater than 100 µM. Also, the selectivity ratio in data set [8] is greater than 1.4. Besides, the Ratio IC50 in data set [9] amounted to 2.2.
Turning to `CC1=CC(=O)C2(O1)c1c(cc(/C=C/c3ccc(O)c(O)c3)oc1=O)OC2c1ccc(O)c(O)c1` (configuration not stated) [INOSCAVIN A], the inhibition entry in the data set on Influenza A virus [1] is “Active”. Also, the concentration for half-maximal inhibition (IC50) at Neuraminidase [2] worked out at 18.5 µM; on Neuraminidase [5], 18.5 µM; on Neuraminidase [10], 20 µM; in the data set with Influenza A virus [12], 22.6 µM. The inhibition result in data set [3] and in data set [11] was “Dose-dependent effect” in each case. Also, the Kiuc in data set [4] stood at 24.5 µM. In data set [6], this compound came in with a Retention_time of 14.9 min. The half-maximal cytotoxic concentration (CC50) in data set [7] turned out to be 433 µM. Moreover, in data set [8], the selectivity ratio stood at 4.4. Further, the Ratio IC50 amounted to 2.5 in [9] and 2.9 in the data set with Influenza A virus [13].
Turning to `O=c1oc2cc(/C=C/c3ccc(O)c(O)c3)oc(=O)c2c2cc(O)c(O)cc12` [PHELLIGRIDIN D], the inhibition entry with Influenza A virus [1] was “Active”. Moreover, the IC50 on Neuraminidase [2] worked out at 10.9 µM; at Neuraminidase [5], 10.3 µM; on Neuraminidase [10], 8.8 µM; with Influenza A virus [12], 24.6 µM. For the same compound, the inhibition entry in [3] and in [11] was “Dose-dependent effect” in each case. The Kiuc in [4] is 15.9 µM. Besides, the Retention_time in [6] is on record as 18.8 min. The compound also yielded a CC50 in data set [7] greater than 100 µM. In addition, the selectivity ratio in data set [8] is greater than 4.1. Further, the Ratio IC50 in data set [9] is 5.8.
On to `CC(=O)N[C@H]1[C@H]([C@H](O)[C@H](O)CO)OC(C(=O)O)=C[C@@H]1NC(=N)N` [ZANAMIVIR], for which the inhibition result in the data set with Influenza A virus [1] was “Active”. Further, the concentration for half-maximal inhibition (IC50) in the data set on Influenza A virus [12] was 0.0647 µM.

For orientation: IC50 means the midpoint of a concentration-inhibition curve. Usually CC50 stands for the concentration that lowers cell viability or growth by half. Higher therefore signals lower toxicity to the cells.
